Reference: patent publication US6541450B1, “Parathyroid hormone analogues for the treatment of osteoporosis” (National Research Council of Canada, priority 1994, dated 2003)
Where a SMILES comes first, the peptide text is derived from it. Bridges are numbered along the chain shown (N, C = ends). [ ]: non-standard residue; d: D form. Nle = CCCC[C@H](N)C(=O)O; Orn = NCCC[C@H](N)C(=O)O

Molecular target: T1, adenylyl cyclase, ROS 17/2 cells (Rattus norvegicus, UniProt P25961)
T1 sequence (P25961 27-591): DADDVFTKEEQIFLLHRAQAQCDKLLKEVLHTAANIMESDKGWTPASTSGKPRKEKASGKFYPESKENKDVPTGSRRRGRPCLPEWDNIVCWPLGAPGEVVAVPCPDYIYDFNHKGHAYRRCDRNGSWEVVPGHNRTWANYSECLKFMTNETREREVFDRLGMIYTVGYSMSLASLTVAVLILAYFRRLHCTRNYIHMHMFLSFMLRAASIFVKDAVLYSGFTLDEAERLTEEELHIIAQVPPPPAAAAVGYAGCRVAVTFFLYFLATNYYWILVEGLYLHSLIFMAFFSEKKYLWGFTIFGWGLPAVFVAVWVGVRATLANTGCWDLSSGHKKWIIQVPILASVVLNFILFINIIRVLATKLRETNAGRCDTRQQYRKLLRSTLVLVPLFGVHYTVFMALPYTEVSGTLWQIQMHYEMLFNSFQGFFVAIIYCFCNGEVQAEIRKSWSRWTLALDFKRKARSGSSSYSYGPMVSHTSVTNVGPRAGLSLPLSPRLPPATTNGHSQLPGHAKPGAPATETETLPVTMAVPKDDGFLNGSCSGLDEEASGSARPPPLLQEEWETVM
Assay: Adenylyl cyclase stimulation, [3H]-cyclic AMP production in ROS 17/2 cells
Assay type: cell-based
Details: ROS 17/2 cells; concentration for half-maximal increase in AC activity; read-out: Adenylyl Cyclase (EC50)

Row | Structure (SMILES) | EC50
1 | CC[C@H](C)[C@H](NC(=O)[C@H](CCC(=O)O)NC(=O)[C@H](CO)NC(=O)[C@@H](NC(=O)[C@@H](N)CO)C(C)C)C(=O)N[C@@H](CCC(N)=O)C(=O)N[C@@H](CC(C)C)C(=O)N[C@@H](CCSC)C(=O)N[C@@H](Cc1c[nH]cn1)C(=O)N[C@@H](CC(N)=O)C(=O)N[C@@H](CC(C)C)C(=O)NCC(=O)N[C@@H](CCCCN)C(=O)N[C@@H](Cc1c[nH]cn1)C(=O)N[C@@H](CC(C)C)C(=O)N[C@@H](CC(N)=O)C(=O)N[C@@H](CO)C(=O)N[C@@H](CCSC)C(=O)N[C@@H](CCC(=O)O)C(=O)N[C@@H](CCCNC(=N)N)C(=O)N[C@H](C(=O)N[C@H]1CSSC[C@@H](C(=O)N[C@@H](CC(C)C)C(=O)N[C@@H](CC(C)C)C(=O)N[C@@H](CCC(N)=O)C(=O)N[C@@H](CC(=O)O)C(=O)N[C@H](C(N)=O)C(C)C)NC(=O)[C@H](CCCNC(=N)N)NC(=O)[C@H](CC(C)C)NC(=O)[C@H](Cc2c[nH]c3ccccc23)NC1=O)C(C)C [[Cys^22, Cys^26, Leu^27]cyclo(Cys^22—Cys^26)—hPTH—(1-31)-NH2] (H-SVSEIQLMHNLGKHLNSMERVCWLRCLLQDV-NH2; disulfide 22-26) | 16 nM
2 | CC[C@H](C)[C@H](NC(=O)[C@H](CCC(=O)O)NC(=O)[C@H](CO)NC(=O)[C@@H](NC(=O)[C@@H](N)CO)C(C)C)C(=O)N[C@@H](CCC(N)=O)C(=O)N[C@@H](CC(C)C)C(=O)N[C@@H](CCSC)C(=O)N[C@@H](Cc1c[nH]cn1)C(=O)N[C@@H](CC(N)=O)C(=O)N[C@@H](CC(C)C)C(=O)NCC(=O)N[C@@H](CCCCN)C(=O)N[C@@H](Cc1c[nH]cn1)C(=O)N[C@@H](CC(C)C)C(=O)N[C@@H](CC(N)=O)C(=O)N[C@@H](CO)C(=O)N[C@@H](CCSC)C(=O)N[C@@H](CCC(=O)O)C(=O)N[C@@H](CCCNC(=N)N)C(=O)N[C@H](C(=O)N[C@H]1CCC(=O)NCCCC[C@@H](C(=O)N[C@@H](Cc2ccc(O)cc2)C(=O)N[C@@H](CC(C)C)C(=O)N[C@@H](CCC(N)=O)C(=O)N[C@@H](CC(=O)O)C(=O)N[C@H](C(N)=O)C(C)C)NC(=O)[C@H](CCCNC(=N)N)NC(=O)[C@H](CC(C)C)NC(=O)[C@H](Cc2c[nH]c3ccccc23)NC1=O)C(C)C [[Tyr^27]cyclo(Glu^22—Lys^26)—hPTH—(1-31)-NH2] (H-SVSEIQLMHNLGKHLNSMERVEWLRKYLQDV-NH2; lactam 22-26; N-terminus assumed) | 9 nM
3 | CCCC[C@H](NC(=O)[C@H](CO)NC(=O)[C@H](CC(N)=O)NC(=O)[C@H](CC(C)C)NC(=O)[C@H](Cc1c[nH]cn1)NC(=O)[C@H](CCCCN)NC(=O)CNC(=O)[C@H](CC(C)C)NC(=O)[C@H](CC(N)=O)NC(=O)[C@H](Cc1c[nH]cn1)NC(=O)[C@H](CCCC)NC(=O)[C@H](CC(C)C)NC(=O)[C@H](CCC(N)=O)NC(=O)[C@@H](NC(=O)[C@H](CCC(=O)O)NC(=O)[C@H](CO)NC(=O)[C@@H](NC(=O)[C@@H](N)CO)C(C)C)[C@@H](C)CC)C(=O)N[C@@H](CCC(=O)O)C(=O)N[C@@H](CCCNC(=N)N)C(=O)N[C@H](C(=O)N[C@H]1CCC(=O)NCCCC[C@@H](C(=O)N[C@@H](CC(C)C)C(=O)N[C@@H](CC(C)C)C(=O)N[C@@H](CCC(N)=O)C(=O)N[C@@H](CC(=O)O)C(=O)N[C@H](C(N)=O)C(C)C)NC(=O)[C@H](CCCNC(=N)N)NC(=O)[C@H](CC(C)C)NC(=O)[C@H](Cc2c[nH]c3ccccc23)NC1=O)C(C)C [[Nle^8.18, Leu^27]cyclo(Glu^22—Lys^26)—hPTH—(1-31)-NH2] (H-SVSEIQL[Nle]HNLGKHLNS[Nle]ERVEWLRKLLQDV-NH2; lactam 22-26; N-terminus assumed) | 6 nM
4 | CC[C@H](C)[C@H](NC(=O)[C@H](CCC(=O)O)NC(=O)[C@H](CO)NC(=O)[C@@H](NC(=O)[C@@H](N)CO)C(C)C)C(=O)N[C@@H](CCC(N)=O)C(=O)N[C@@H](CC(C)C)C(=O)N[C@@H](CCSC)C(=O)N[C@@H](Cc1c[nH]cn1)C(=O)N[C@@H](CC(N)=O)C(=O)N[C@@H](CC(C)C)C(=O)NCC(=O)N[C@@H](CCCCN)C(=O)N[C@@H](Cc1c[nH]cn1)C(=O)N[C@@H](CC(C)C)C(=O)N[C@@H](CC(N)=O)C(=O)N[C@@H](CO)C(=O)N[C@@H](CCSC)C(=O)N[C@@H](CCC(=O)O)C(=O)N[C@@H](CCCNC(=N)N)C(=O)N[C@H](C(=O)N[C@@H](CCC(=O)O)C(=O)N[C@@H](Cc1c[nH]c2ccccc12)C(=O)N[C@@H](CC(C)C)C(=O)N[C@@H](CCCNC(=N)N)C(=O)N[C@H]1CSSC[C@@H](C(=O)N[C@H](C(N)=O)C(C)C)NC(=O)[C@H](CCC(N)=O)NC(=O)[C@H](CC(C)C)NC(=O)[C@H](CC(C)C)NC1=O)C(C)C [[Cys^26, Cys^30, Leu^27]cyclo(Cys^26—Cys^30)—hPTH—(1-31)-NH2] (H-SVSEIQLMHNLGKHLNSMERVEWLRCLLQCV-NH2; disulfide 26-30) | 24 nM
5 | CC[C@H](C)[C@H](NC(=O)[C@H](CCC(=O)O)NC(=O)[C@H](CO)NC(=O)[C@@H](NC(=O)[C@@H](N)CO)C(C)C)C(=O)N[C@@H](CCC(N)=O)C(=O)N[C@@H](CC(C)C)C(=O)N[C@@H](CCSC)C(=O)N[C@@H](Cc1c[nH]cn1)C(=O)N[C@@H](CC(N)=O)C(=O)N[C@@H](CC(C)C)C(=O)NCC(=O)N[C@@H](CCCCN)C(=O)N[C@@H](Cc1c[nH]cn1)C(=O)N[C@@H](CC(C)C)C(=O)N[C@@H](CC(N)=O)C(=O)N[C@@H](CO)C(=O)N[C@@H](CCSC)C(=O)N[C@@H](CCC(=O)O)C(=O)N[C@@H](CCCNC(=N)N)C(=O)N[C@H](C(=O)N[C@H]1CC(=O)NCCC[C@@H](C(=O)N[C@@H](CC(C)C)C(=O)N[C@@H](CC(C)C)C(=O)N[C@@H](CCC(N)=O)C(=O)N[C@@H](CC(=O)O)C(=O)N[C@H](C(N)=O)C(C)C)NC(=O)[C@H](CCCNC(=N)N)NC(=O)[C@H](CC(C)C)NC(=O)[C@H](Cc2c[nH]c3ccccc23)NC1=O)C(C)C [[Leu^27]cyclo(Asp^22—Orn^26)—hPTH—(1-31)-NH2] (H-SVSEIQLMHNLGKHLNSMERVDWLR[Orn]LLQDV-NH2; lactam 22-26; N-terminus assumed) | > 200 nM
6 | CCCC[C@H](NC(=O)[C@@H]1CCCCNC(=O)CC[C@H](NC(=O)[C@@H](NC(=O)[C@H](CCCNC(=N)N)NC(=O)[C@H](CCC(=O)O)NC(=O)[C@H](CCSC)NC(=O)[C@H](CO)NC(=O)[C@H](CC(N)=O)NC(=O)[C@H](CC(C)C)NC(=O)[C@H](Cc2c[nH]cn2)NC(=O)[C@H](CCCCN)NC(=O)CNC(=O)[C@H](CC(C)C)NC(=O)[C@H](CC(N)=O)NC(=O)[C@H](Cc2c[nH]cn2)NC(=O)[C@H](CCSC)NC(=O)[C@H](CC(C)C)NC(=O)[C@H](CCC(N)=O)NC(=O)[C@@H](NC(=O)[C@H](CCC(=O)O)NC(=O)[C@H](CO)NC(=O)[C@@H](NC(=O)[C@@H](N)CO)C(C)C)[C@@H](C)CC)C(C)C)C(=O)N[C@@H](Cc2c[nH]c3ccccc23)C(=O)N[C@@H](CC(C)C)C(=O)N[C@@H](CCCNC(=N)N)C(=O)N1)C(=O)N[C@@H](CC(C)C)C(=O)N[C@@H](CCC(N)=O)C(=O)N[C@@H](CC(=O)O)C(=O)N[C@H](C(N)=O)C(C)C [[Nle^27]cyclo(Glu^22—Lys^26)—hPTH—(1-31)-NH2] (H-SVSEIQLMHNLGKHLNSMERVEWLRK[Nle]LQDV-NH2; lactam 22-26) | 9 nM
7 | CC[C@H](C)[C@H](NC(=O)[C@H](CCC(=O)O)NC(=O)[C@H](CO)NC(=O)[C@@H](NC(=O)[C@@H](N)CO)C(C)C)C(=O)N[C@@H](CCC(N)=O)C(=O)N[C@@H](CC(C)C)C(=O)N[C@@H](CCSC)C(=O)N[C@@H](Cc1c[nH]cn1)C(=O)N[C@@H](CC(N)=O)C(=O)N[C@@H](CC(C)C)C(=O)NCC(=O)N[C@@H](CCCCN)C(=O)N[C@@H](Cc1c[nH]cn1)C(=O)N[C@@H](CC(C)C)C(=O)N[C@@H](CC(N)=O)C(=O)N[C@@H](CO)C(=O)N[C@@H](CCSC)C(=O)N[C@@H](CCC(=O)O)C(=O)N[C@@H](CCCNC(=N)N)C(=O)N[C@H](C(=O)N[C@H]1CCC(=O)NCCCC[C@@H](C(=O)N[C@@H](CCCCN)C(=O)N[C@@H](CC(C)C)C(=O)N[C@@H](CCC(N)=O)C(=O)N[C@@H](CC(=O)O)C(=O)N[C@H](C(N)=O)C(C)C)NC(=O)[C@H](CCCNC(=N)N)NC(=O)[C@H](CC(C)C)NC(=O)[C@H](Cc2c[nH]c3ccccc23)NC1=O)C(C)C [cyclo(Glu^22—Lys^26)—hPTH—(1-31)-NH2] | 17 nM
8 | CC[C@H](C)[C@H](NC(=O)[C@H](CCC(=O)O)NC(=O)[C@H](CO)NC(=O)[C@@H](NC(=O)[C@@H](N)CO)C(C)C)C(=O)N[C@@H](CCC(N)=O)C(=O)N[C@@H](CC(C)C)C(=O)N[C@@H](CCSC)C(=O)N[C@@H](Cc1c[nH]cn1)C(=O)N[C@@H](CC(N)=O)C(=O)N[C@@H](CC(C)C)C(=O)NCC(=O)N[C@@H](CCCCN)C(=O)N[C@@H](Cc1c[nH]cn1)C(=O)N[C@@H](CC(C)C)C(=O)N[C@@H](CC(N)=O)C(=O)N[C@@H](CO)C(=O)N[C@@H](CCSC)C(=O)N[C@@H](CCC(=O)O)C(=O)N[C@@H](CCCNC(=N)N)C(=O)N[C@H](C(=O)N[C@H]1CCC(=O)NCCCC[C@@H](C(=O)N[C@@H](CC(C)C)C(=O)N[C@@H](CC(C)C)C(=O)N[C@@H](CCC(N)=O)C(=O)N[C@@H](CC(=O)O)C(=O)N[C@H](C(=O)N[C@@H](Cc2c[nH]cn2)C(=O)N[C@@H](CC(N)=O)C(=O)N[C@@H](Cc2ccccc2)C(=O)O)C(C)C)NC(=O)[C@H](CCCNC(=N)N)NC(=O)[C@H](CC(C)C)NC(=O)[C@H](Cc2c[nH]c3ccccc23)NC1=O)C(C)C [[Leu^27]cyclo(Glu^22—Lys^26)—hPTH—(1-34)-OH] (H-SVSEIQLMHNLGKHLNSMERVEWLRKLLQDVHNF-OH; lactam 22-26; N-terminus assumed) | 6 nM
